Our source for the IC50 values is paper PMC5077133, “Towards Development of Small Molecule Lipid II Inhibitors as Novel Antibiotics” (PLoS ONE, 2016).

Each structure is given as a SMILES string. Read-outs that look alike come from different tables or passages of the source.

Common to all, as to assay: Cytochrome P450 inhibition
Common to all, as to assay type: in vitro ADME

In one data set the target is T1, CYP2C19 (Homo sapiens, UniProt P33261).
T1 construct: purchased Corning
Particulars: recombinant human CYP2C19 (Supersomes), pH 7.4, probe CEC, IC50 fluorescence, substrate CEC, read-out: P450 enzyme inhibition IC50 CYP2C19/CEC. The procedure: (§1) The final concentration of each substrate was 1 μM.
(§2) Computation of IC50 values:The background of no-enzyme samples to determine the background value were averaged. The positive control or full-reaction samples to determine the signal value were averaged.
(§3) The percent activity of each sample was calculated as follows:
(§4) [(Test compound metabolite–average background)/(average signal–average background)] X 100 = % activity
(§5) The the IC50 value using non-linear regression was calculated.

The next data set deals with T2, CYP2D6 (Homo sapiens, UniProt P10635).
T2 construct: purchased Corning
Particulars: recombinant human CYP2D6 (Supersomes), pH 7.4, probe AMMC, IC50 fluorescence, substrate AMMC, read-out: P450 enzyme inhibition IC50 CYP2D6/ AMMC. On the procedure:
as §1, §2, §3, §4, §5

In the next data set the target is T3, CYP3A4 (Homo sapiens, UniProt P08684).
T3 construct: purchased Corning
Particulars: IC50 fluorescence. On the procedure:
as §1, §2, §3, §4, §5

T3 sequence (P08684 whole entry): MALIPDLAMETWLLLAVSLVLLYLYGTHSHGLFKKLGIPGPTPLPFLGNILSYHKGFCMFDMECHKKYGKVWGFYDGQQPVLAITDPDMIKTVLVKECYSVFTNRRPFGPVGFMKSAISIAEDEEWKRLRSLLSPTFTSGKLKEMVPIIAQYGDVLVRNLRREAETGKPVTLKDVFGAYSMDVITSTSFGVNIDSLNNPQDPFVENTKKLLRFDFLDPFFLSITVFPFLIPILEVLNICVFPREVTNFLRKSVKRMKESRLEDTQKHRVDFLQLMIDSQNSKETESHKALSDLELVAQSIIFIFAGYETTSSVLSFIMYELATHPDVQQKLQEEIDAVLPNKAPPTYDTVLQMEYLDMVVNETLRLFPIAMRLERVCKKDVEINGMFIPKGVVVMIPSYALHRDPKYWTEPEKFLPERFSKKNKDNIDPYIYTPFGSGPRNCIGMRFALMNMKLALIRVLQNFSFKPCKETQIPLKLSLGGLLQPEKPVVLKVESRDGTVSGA
T2 sequence (P10635 whole entry): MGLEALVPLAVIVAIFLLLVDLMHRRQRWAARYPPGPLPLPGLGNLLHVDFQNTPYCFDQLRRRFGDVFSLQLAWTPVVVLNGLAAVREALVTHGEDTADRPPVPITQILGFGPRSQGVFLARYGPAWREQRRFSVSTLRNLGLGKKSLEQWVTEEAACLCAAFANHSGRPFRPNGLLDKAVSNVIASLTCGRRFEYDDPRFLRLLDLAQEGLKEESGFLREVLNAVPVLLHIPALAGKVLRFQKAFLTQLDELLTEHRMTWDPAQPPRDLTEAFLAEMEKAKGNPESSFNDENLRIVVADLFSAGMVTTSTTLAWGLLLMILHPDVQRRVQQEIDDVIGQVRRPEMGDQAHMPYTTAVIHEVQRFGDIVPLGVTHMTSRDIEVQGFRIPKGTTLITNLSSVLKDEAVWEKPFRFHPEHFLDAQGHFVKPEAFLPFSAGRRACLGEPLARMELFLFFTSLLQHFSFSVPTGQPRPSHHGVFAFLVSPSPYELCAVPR
T1 sequence (P33261 whole entry): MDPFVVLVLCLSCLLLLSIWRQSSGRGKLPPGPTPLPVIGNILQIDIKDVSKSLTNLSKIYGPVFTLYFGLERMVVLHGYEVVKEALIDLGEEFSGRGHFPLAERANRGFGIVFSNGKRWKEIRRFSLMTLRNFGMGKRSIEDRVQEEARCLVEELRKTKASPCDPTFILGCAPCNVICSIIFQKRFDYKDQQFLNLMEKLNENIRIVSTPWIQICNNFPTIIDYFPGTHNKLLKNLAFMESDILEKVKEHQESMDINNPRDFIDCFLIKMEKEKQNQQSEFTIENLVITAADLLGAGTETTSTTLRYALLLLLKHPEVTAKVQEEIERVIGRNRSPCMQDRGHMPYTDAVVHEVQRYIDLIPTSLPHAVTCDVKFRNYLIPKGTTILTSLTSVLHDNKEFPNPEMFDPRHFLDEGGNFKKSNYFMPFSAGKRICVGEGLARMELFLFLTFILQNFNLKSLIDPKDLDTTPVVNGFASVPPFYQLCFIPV

As for `CN(C)c1ccc(/C=C/c2cc(-c3ccc(Br)cc3)cc(-c3ccc(Br)cc3)[o+]2)cc1` [6jc48-1], the IC50 was more than 10 µM on CYP2C19; more than 10 µM at CYP2D6; 1.3 µM on CYP3A4 (substrate BFC, read-out: P450 enzyme inhibition IC50 CYP3A4/ BFC); more than 10 µM at CYP3A4 (human, recombinant human CYP3A4 (Supersomes), pH 7.4, probe DBF, substrate DBF, read-out: P450 enzyme inhibition IC50 CYP3A4/ DBF).
